Experimental data as given in PubChem BioAssay AID2060361 (Molecular Pharmacology Branch, DTP, NCI, 2025).

System: 463943-066-T-J2-PDC tumor spheroids with HUVEC/MSC, viability
Experiment: Anticancer human tumor 463943-066-T-J2-PDC patient-derived colon adenocarcinoma cell line growth inhibition [TAK]
Details: for IC50: curve of first compound; for viability, T/C: stronger effect = lower value; active means viability on the fitted dose curve at most 10% of control; inactive means the rest
Excerpt: Combinatorial screen of targeted agents with TAK-243 and ipatasertib in multi-cell type tumor spheroids
A high-throughput screen of multi-cell type tumor spheroids was designed to identify active combinations of targeted small molecules and TAK-243 or ipatasertib. Complex spheroids include a stromal component modeled by human endothelial cells (HUVEC) and fibroblasts modeled by human mesenchymal stem cells (MSCs). The concentration ranges selected for each drug and investigational agent were based upon clinically achievable concentrations if the clinical Cmax of the agent was known.
Compounds. The drugs and investigational agents: TAK-243 (785004), ipatasertib (767898), everolimus (733504), selumetinib (741078), bortezomib (756655), trametinib (758246), ixazomib (758254), vemurafenib (761431), dabrafenib (764134), sapanisertib (764658), alpelisib (765974), and copanlisib (816437), were obtained from the National Cancer Institute (NCI) Developmental Therapeutics Program Chemical Repository. The FDA-approved anticancer drug set is available from the NCI Developmental Therapeutics Program. […] The stock solutions were prepared in dimethyl sulfoxide (DMSO, Sigma-Aldrich, St. Louis, MO, cat. D2650) at 800-fold the tested concentration and stored at -70 degrees C prior to their use. All drugs and investigational agents were tested over a range starting from a high concentration at or near the clinical Cmax and decreasing in half-log increments. If the clinical Cmax for an agent had not been determined, the highest concentration tested was 10 microM.
NCI60 Cell Culture. NCI60 cell lines were obtained from the NCI Developmental Therapeutics Program Tumor Repository. For each lot of cells, the Repository performed Applied Biosystems AmpFLSTR Identifiler testing with PCR amplification to confirm consistency with the published Identifier STR profile for each cell line. Cells were kept in continuous culture for no more than 20 passages. The optimal seeding densities for each of the cell lines at each time point assessed were determined prior to performing the concentration response studies. Briefly, the NCI60 human tumor lines were grown as monolayers in RPMI 1640 medium supplemented with 10% FBS and 2 mmol/L L-glutamine.
An additional 2 lines were from the NCI60 cell line panel including melanomas, MALME-3M and SK-MEL-2. Pooled donor human umbilical vein endothelial cells (HUVEC, Lonza, cat. CC-2519) and human mesenchymal stem cells (hMSC, Lonza, cat. PT-2501) were purchased from Lonza (Walkersville, MD).
PDMR cell lines were grown in complete medium (DC medium): Dulbecco's modified Eagle's medium (DMEM)/F12 supplemented with 5% fetal bovine serum (FBS), 2 mM L-glutamine, 100 U/mL penicillin and 100 µg/ml streptomycin, 0.4 µg/ml hydrocortisone, 10 ng/ml epidermal growth factor (EGF) recombinant human protein, 24 µg/mL adenine, and 0.1 mg/mL primocin. During culture from frozen stock vials, PDMR cells were cultured in the same medium containing 10 µM Y-27632 (see Table 3). The PDCs were cultured in complete DMEM/F12 media without 10 microM Y-27632 dihydrochloride for at least two passages prior to the screen. The pooled donor HUVEC and hMSC were cultured in endothelial cell growth medium 2 (PromoCell, Heidelberg, Germany, cat. C-22011) and mesenchymal stem cell growth medium 2 (PromoCell, cat. C-28009), respectively. For all experiments, HUVEC and hMSC were used at passages </=5.
For the pre-screen, cell seeding densities were determined from a titration spanning the range from 5,000 to 313 cells per well. The mct-spheroids including 60% malignant cells, 25% HUVEC and 15% MSC dispensed as a mixture into U-bottom Ultra-Low Attachment 384-well plates (Corning, NY)
High-throughput Drug Combination Screening.
Prior to their inoculation into 384-well plates, malignant cells, HUVEC, and hMSC were removed from T flasks using TrypLE express (Thermo Fisher Scientific, cat. 12605036) and harvested by centrifugation for 5 min at 233 x g. […]
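Further: spheroids exposed to drugs for seven days.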

CC(=O)Nc1cccc(-n2c(=O)n(C3CC3)c(=O)c3c(Nc4ccc(I)cc4F)n(C)c(=O)c(C)c32)c1 + CC(C)NCC(C(=O)N1CCN(c2ncnc3c2C(C)CC3O)CC1)c1ccc(Cl)cc1
inactive: viability, T/C (second compound 0.3 µM, first compound 94.9 pM) 98.7% | viability, T/C (second compound 0.3 µM, first compound 0.0003 µM) 94.3% | viability, T/C (second compound 0.3 µM, first compound 0.000949 µM) 83.2% | viability, T/C (second compound 0.3 µM, first compound 0.003 µM) 82.2% | viability, T/C (second compound 0.3 µM, first compound 0.00949 µM) 71.5% | viability, T/C (second compound 0.3 µM, first compound 0.03 µM) 65.2% | viability, T/C (second compound 0.949 µM, first compound 94.9 pM) 95.2% | viability, T/C (second compound 0.949 µM, first compound 0.0003 µM) 91.5% | viability, T/C (second compound 0.949 µM, first compound 0.000949 µM) 84.1% | viability, T/C (second compound 0.949 µM, first compound 0.003 µM) 83.9% | viability, T/C (second compound 0.949 µM, first compound 0.00949 µM) 77.2% | viability, T/C (second compound 0.949 µM, first compound 0.03 µM) 61.2% | viability, T/C (second compound 3 µM, first compound 94.9 pM) 96.1% | viability, T/C (second compound 3 µM, first compound 0.0003 µM) 96.3% | viability, T/C (second compound 3 µM, first compound 0.000949 µM) 87.2% | viability, T/C (second compound 3 µM, first compound 0.003 µM) 84.4% | viability, T/C (second compound 3 µM, first compound 0.00949 µM) 72% | viability, T/C (second compound 3 µM, first compound 0.03 µM) 57% | viability, T/C (second compound 9.49 µM, first compound 94.9 pM) 88% | viability, T/C (second compound 9.49 µM, first compound 0.0003 µM) 99% | viability, T/C (second compound 9.49 µM, first compound 0.000949 µM) 90.3% | viability, T/C (second compound 9.49 µM, first compound 0.003 µM) 79.5% | viability, T/C (second compound 9.49 µM, first compound 0.00949 µM) 72.3% | viability, T/C (second compound 9.49 µM, first compound 0.03 µM) 62.7% | viability, T/C (second compound 30 µM, first compound 94.9 pM) 91.4% | viability, T/C (second compound 30 µM, first compound 0.0003 µM) 90.3% | viability, T/C (second compound 30 µM, first compound 0.000949 µM) 87.1% | viability, T/C (second compound 30 µM, first compound 0.003 µM) 80.6% | viability, T/C (second compound 30 µM, first compound 0.00949 µM) 69.1% | viability, T/C (second compound 30 µM, first compound 0.03 µM) 53.6%
> 30 nM: IC50 (second compound 0.3 µM) | IC50 (second compound 0.949 µM) | IC50 (second compound 3 µM) | IC50 (second compound 9.49 µM) | IC50 (second compound 30 µM)
